# Assay results: US20100196464A1, “ORLISTAT PHARMACEUTICAL FORMULATIONS” (DR. REDDY'S LABORATORIES LIMITED, priority 2007, published 2010)
# Experiments:
# [1] = Particle size distribution; format: physicochemical
# Source text: The term “average particle size” refers to particle sizes represented by D(0.5), wherein 50% of particles in a powder have sizes greater than, and 50% of particles have sizes less than, a specified value.
# Various parameters impacting the preparation of solid oral dosage forms include the physical properties of active ingredients as well as those of the final blends of active ingredients with excipients, wherein the physical properties include flow properties, particle sizes (such as determined by sieve analyzers, electrical conductance instruments such as a Coulter counter, and laser light diffraction particle size analyzers such as the instruments available from Malvern Instruments, Ltd., Malvern, Worcestershire, United Kingdom), bulk densities and tapped densities, compressibility indexes, Hausner ratios (determined by USP density apparatus), flow properties (such as determined by Flowdex apparatus), etc.
# The percent of particles with different dimensions that exist in a powder is called the particle size distribution. It is represented in certain ways. Particle size is the maximum dimension of a particle, normally expressed in units of μm. Particle size distributions can be expressed in terms of D(0.1), D(0.5), D(0.9) and D [4,3]. The D(0.1), D(0.5) and D(0.9) represent the 10th, median or the 50th percentile, and the 90th percentile of the particle size distribution, respectively. They can be expressed as volume, weight, or surface percentages. For example when measured by volume, D(0.1), D(0.5), D(0.9) is a value of the distribution such that 10%, 50%, 90% by volume of the particles have a size of this value or less, or is the percentage of particles smaller than that size. D(0.5) is also known as median diameter of particle. It is one of the important parameters representing characteristics of particle of powder. For a sample, if D(0.5)=5 μm, it means that 50% of the particles are smaller than 5 μm. Similarly, if D(0.1)=5 μm, 10% by volume of the particles are less than or equal to 5 μm, and if D(0.9)=5 μm, 90% of the particles are less than or equal to 5 μm. D[4,3] is the volume moment mean of the particles or the volume weighted particle size.
# [2] = Bulk density and tapped density; format: physicochemical; conditions: orlistat used in the formulation of Example 6
# Source text: Other important physicochemical characteristics of powders are the density properties such as bulk and tapped density, weight variation and flow properties such as angle of repose. Bulk density is the undisturbed packing density of that substance and tapped bulk density relates to the packing density after tapping a bed of substance until no change in the packing density is seen. Bulk density and tapped density, can be determined using compendial bulk density apparatus, such as the method given in Test 616 “Bulk Density and Tapped Density,” United States Pharmacopeia 29, United States Pharmacopeial Convention, Inc., Rockville, Md., 2005 (“USP”). Weight variation can be determined using the method given in United States Pharmacopeia 29.
# [3] = cited from earlier work
# [4] = physiological pH range; cited from earlier work
# [5] = orlistat used in the formulation of Example 1
# [6] = orlistat used in the formulation of Example 6
smiles,measurement,setting,value
"CCCCCCCCCCC[C@@H](C[C@@H]1OC(=O)[C@H]1CCCCCC)OC(=O)[C@H](CC(C)C)NC=O [Orlistat, (S)-1-[[(2S,3S)-3-hexyl-4-oxo-2-oxetanyl]methyl]-dodecyl ester]",D(0.1),[1]; [5],1.8 μm
same,D(0.5),[1]; [5],8.6 μm
same,D(0.9),[1]; [5],24.5 μm
same,D(0.1),[1]; [6],18.7 μm
same,D(0.5),[1]; [6],84.2 μm
same,D(0.9),[1]; [6],171.8 μm
same,Bulk density,[2],0.424 g/mL
same,Tapped density,[2],0.571 g/mL
same,Solubility in chloroform,[3]; chloroform,freely soluble
same,Solubility in ethanol,[3]; ethanol,very soluble
same,Solubility in methanol,[3]; methanol,very soluble
same,Solubility in water,[3]; water,practically insoluble
same,pKa,[4],no pKa within the physiological pH range
